Common to all, as to assay: MIC and MBC
One experiment deals with VRSA VRS12. The class given is cell-based, S. aureus. The note with it: Staphylococcus aureus, VRSA VRS12. The method, then: (§1) Bacteria were cultured in cation-adjusted Mueller Hinton Broth (for strains in Tables 1 and 4) or Brain Heart Infusion broth (for Enterococcus faecium) or Tryptic Soy Broth (all other bacteria) in a 96-well plate at 37° C. for at least 20 hours. The MIC was classified as the lowest concentration where no visual growth of bacteria was observed. The minimum bactericidal concentration (MBC) was tested by spotting 4 μL from wells with no growth onto Tryptic Soy Agar (TSA) plates. Plates were incubated at 37° C. for at least 18 hours before recording the MBC.

In the next experiment the test system is VISA NRS1. It counts as cell-based, S. aureus. The note with it: Staphylococcus aureus, VISA NRS1. How it is done:
as §1

The subject of another experiment is MRSA NRS119. It counts as cell-based, Staphylococcus aureus. Conditions: Staphylococcus aureus, MRSA NRS119. The method, then: as §1
A further experiment concerns MRSA NRS386 (USA700). The class given is cell-based. Conditions: Staphylococcus aureus, MRSA NRS386 (USA700). How it is done:
as §1

In a further experiment the test system is MRSA NRS387 (USA800). The class given is cell-based. The note with it: Staphylococcus aureus, MRSA NRS387 (USA800). The method, then:
as §1

The test system of another experiment is MRSA NRS384 (USA300). The class given is cell-based. Conditions: Staphylococcus aureus, MRSA NRS384 (USA300). How it is done: as §1

Among the data in patent US11731964B2, “Benzamide antibacterial agents” (Purdue Research Foundation, priority 2018, dated 2023) are MBC and MIC values, retold here.

The term MBC denotes the smallest concentration meeting the test's criterion for killing. In general, MIC refers to the lowest concentration found to suppress growth.

Each structure is given as a SMILES string. Converted amounts (≈) assume the structure as drawn. Bounds are passed on as bounds.

On to `CC1CC(C)CN(S(=O)(=O)c2ccc(C(=O)Nc3nnc(-c4cccs4)o3)cc2)C1` (stereo not drawn) [Compound F6], for which the MBC in the experiment with VRSA VRS12 (read-out: MBC), in the experiment with VISA NRS1 (read-out: MBC), with MRSA NRS119 (read-out: MBC), with MRSA NRS386 (USA700) (read-out: MBC), in the experiment on MRSA NRS387 (USA800) (read-out: MBC) and in the experiment with MRSA NRS384 (USA300) (read-out: MBC) was over 128 µg/mL in each case. The MIC with VRSA VRS12 (read-out: MIC), in the experiment with VISA NRS1 (read-out: MIC), in the experiment on MRSA NRS119 (read-out: MIC), with MRSA NRS386 (USA700) (read-out: MIC), in the experiment on MRSA NRS387 (USA800) (read-out: MIC) and with MRSA NRS384 (USA300) (read-out: MIC) was 2 µg/mL (≈ 4.48 µM) throughout.
